Experimental data from patent publication US11679111B2, “Fatty acid synthase inhibitors” (priority 2016, dated 2023).
Read-outs that look alike come from different tables or passages of the source.

Assays:
FASN = molecular target: T1, FASN (Sus scrofa, UniProt A5YV76); assay: FLECS screen, elution of fluorescein labeled proteins from Cibacron blue resin; assay type: binding, porcine; conditions: SDS-PAGE and mass spectrometry
T1 construct: from tissue; host or cells: lactating porcine mammary gland extract
Text: To specifically identify inhibitors of FASN targeting its nucleotide binding pockets Cibacron blue Sepharose was utilized. This medium has been used previously to purify NAD and NADP binding proteins from crude tissues extracts (Miyaguchi et al., 2011; Muratsubaki et al., 1994). FASN enriched extract from lactating pig mammary gland was bound to the resin and labeled with cysteine reactive fluorescein. […] One hundred and fifty-five of the molecules selectively eluted FASN from the resin, and 20 potential lead compounds were progressed according to their FASN selectivity (assessed with SDS-PAGE, silver staining and mass spectrometry). These twenty compounds were reduced to 13 based on the absence of any obvious chemical liabilities. Next, the molecules were tested for their ability to inhibit FASN activity in a HepG2 cell based assay that measured the incorporation of ^3H glucose into lipids (FIG. 1B and FIG. 9).
Porcine mammary glands were collected from lactating pigs as previously described (Hughes et al., 2012). Tissues were homogenized in lysis buffer A (100 mM sodium fluoride, 5 mM EDTA, 1 mM DTT and 5% glycerol made in 10 mM sodium phosphate buffer pH 7.5) in a ratio of 3 ml of buffer per each gram of tissue. […] Fluorescence in each well was measured at Ex/Em: 485/535 nm. […]

HIV-1 [1] = assay: HIV/TZM-bl assay, extracellular p24 ELISA; assay type: cell-based
Procedure: HS-106 or C75 were dissolved in DMSO to achieve 10 mM stock concentration. The stock solution of each drug was serially diluted 3-fold with DMSO and 2 μL of each dilution was added to each well to achieve final concentration range from 10 μM to 4.6 nM fixing final [DMSO] at 1%. HIVNL4.3 was added to 3×10^4 TZM-bl cells at 10 ng/ml p24 equivalents in the presence of 15 μg/mL DEAE dextran. HIV-infected cells were incubated at 37° C. in 5% CO2 for 24 hours, washed with PBS, fresh media was added, and cell were incubated for another 24 hours. Supernatants were collected and stored at −80° C. until P24 ELISA assay. HIV-1 replication was assessed by quantitative p24 ELISA. Nevirapine (positive control) was obtained from the AIDS Reagent Repository and was used at […].

HIV-1 [2] = conditions: for HIV-1 p24 production reduced by: PBMC
Procedure: Primary cell experiments were approved by the Ohio State University Institutional Review Board, protocol #2014H0001. Peripheral blood mononuclear cells (PBMC) were isolated from healthy donor by Ficoll-Paque centrifugation, stimulated in complete RPMI 1640 medium (Gibco, Carlsbad, Calif.) containing 10% FBS, 100 μg/mL penicillin/streptomycin and supplemented with 5 μg/mL phytohemaglutinin (PHA; Gibco) for 48 h, and maintained thereafter in complete RPMI medium supplemented with 20U/mL of interleukin-2 (Gibco). PBMCs were seeded in 24-well plate (2×10^5 cells/well) and triplicate wells were treated with 10 or 50 μM C75, HS-106, or with DMSO and subsequently infected with 10 ng/mL p24 equivalents of HIV-1LucR-T2A virus, which is derived from NL4-3 (Edmonds et al., 2010). Cells were washed 24 h post infection. Supernatants were collected 4 days post infection and p24 content analyzed by quantitative ELISA (Zeptometrix).

[3] = tested on: FASN activity in HepG2 cells; assay: [3H] glucose and acetate incorporation into lipids in HepG2 cells; assay type: cell-based; conditions: for EC50 / IC50: Homo sapiens
Procedure: To specifically identify inhibitors of FASN targeting its nucleotide binding pockets Cibacron blue Sepharose was utilized. This medium has been used previously to purify NAD and NADP binding proteins from crude tissues extracts (Miyaguchi et al., 2011; Muratsubaki et al., 1994). FASN enriched extract from lactating pig mammary gland was bound to the resin and labeled with cysteine reactive fluorescein. […] Next, the molecules were tested for their ability to inhibit FASN activity in a HepG2 cell based assay that measured the incorporation of ^3H glucose into lipids (FIG. 1B and FIG. 9).
Incorporation of radiolabeled glucose or acetate in total lipids was measured according to published methods (Haystead and Hardie, 1986). HepG2 cells (80% confluent in 12 wells plates) were starved overnight in MEM Alpha, the medium was then changed with DMEM medium containing 0.1 g/L glucose 10% FBS and 5 μM insulin and 1 μCi 3-[^3H] D-glucose or 1 μCi [^3H]-acetate in addition to different concentrations of each compound. After incubation for 1 hour at 37° C., 5% CO2, the cells were washed with ice cold PBS and detached by treating with 100 μl trypsin for 10 min then 1 ml of ice cold PBS was added. The cells suspension was then sonicated for 3 times in 30 seconds intervals and kept on ice. From each well 1 ml of cell lysate was added to a 4 ml scintillation vial and 2 ml of MicroScint-E was added. The vials were mixed thoroughly then centrifuged for 30 min at 3000 rpm and the ^3H radioactivity was measured by liquid scintillation counting.

T1 sequence (A5YV76 entry or part of it): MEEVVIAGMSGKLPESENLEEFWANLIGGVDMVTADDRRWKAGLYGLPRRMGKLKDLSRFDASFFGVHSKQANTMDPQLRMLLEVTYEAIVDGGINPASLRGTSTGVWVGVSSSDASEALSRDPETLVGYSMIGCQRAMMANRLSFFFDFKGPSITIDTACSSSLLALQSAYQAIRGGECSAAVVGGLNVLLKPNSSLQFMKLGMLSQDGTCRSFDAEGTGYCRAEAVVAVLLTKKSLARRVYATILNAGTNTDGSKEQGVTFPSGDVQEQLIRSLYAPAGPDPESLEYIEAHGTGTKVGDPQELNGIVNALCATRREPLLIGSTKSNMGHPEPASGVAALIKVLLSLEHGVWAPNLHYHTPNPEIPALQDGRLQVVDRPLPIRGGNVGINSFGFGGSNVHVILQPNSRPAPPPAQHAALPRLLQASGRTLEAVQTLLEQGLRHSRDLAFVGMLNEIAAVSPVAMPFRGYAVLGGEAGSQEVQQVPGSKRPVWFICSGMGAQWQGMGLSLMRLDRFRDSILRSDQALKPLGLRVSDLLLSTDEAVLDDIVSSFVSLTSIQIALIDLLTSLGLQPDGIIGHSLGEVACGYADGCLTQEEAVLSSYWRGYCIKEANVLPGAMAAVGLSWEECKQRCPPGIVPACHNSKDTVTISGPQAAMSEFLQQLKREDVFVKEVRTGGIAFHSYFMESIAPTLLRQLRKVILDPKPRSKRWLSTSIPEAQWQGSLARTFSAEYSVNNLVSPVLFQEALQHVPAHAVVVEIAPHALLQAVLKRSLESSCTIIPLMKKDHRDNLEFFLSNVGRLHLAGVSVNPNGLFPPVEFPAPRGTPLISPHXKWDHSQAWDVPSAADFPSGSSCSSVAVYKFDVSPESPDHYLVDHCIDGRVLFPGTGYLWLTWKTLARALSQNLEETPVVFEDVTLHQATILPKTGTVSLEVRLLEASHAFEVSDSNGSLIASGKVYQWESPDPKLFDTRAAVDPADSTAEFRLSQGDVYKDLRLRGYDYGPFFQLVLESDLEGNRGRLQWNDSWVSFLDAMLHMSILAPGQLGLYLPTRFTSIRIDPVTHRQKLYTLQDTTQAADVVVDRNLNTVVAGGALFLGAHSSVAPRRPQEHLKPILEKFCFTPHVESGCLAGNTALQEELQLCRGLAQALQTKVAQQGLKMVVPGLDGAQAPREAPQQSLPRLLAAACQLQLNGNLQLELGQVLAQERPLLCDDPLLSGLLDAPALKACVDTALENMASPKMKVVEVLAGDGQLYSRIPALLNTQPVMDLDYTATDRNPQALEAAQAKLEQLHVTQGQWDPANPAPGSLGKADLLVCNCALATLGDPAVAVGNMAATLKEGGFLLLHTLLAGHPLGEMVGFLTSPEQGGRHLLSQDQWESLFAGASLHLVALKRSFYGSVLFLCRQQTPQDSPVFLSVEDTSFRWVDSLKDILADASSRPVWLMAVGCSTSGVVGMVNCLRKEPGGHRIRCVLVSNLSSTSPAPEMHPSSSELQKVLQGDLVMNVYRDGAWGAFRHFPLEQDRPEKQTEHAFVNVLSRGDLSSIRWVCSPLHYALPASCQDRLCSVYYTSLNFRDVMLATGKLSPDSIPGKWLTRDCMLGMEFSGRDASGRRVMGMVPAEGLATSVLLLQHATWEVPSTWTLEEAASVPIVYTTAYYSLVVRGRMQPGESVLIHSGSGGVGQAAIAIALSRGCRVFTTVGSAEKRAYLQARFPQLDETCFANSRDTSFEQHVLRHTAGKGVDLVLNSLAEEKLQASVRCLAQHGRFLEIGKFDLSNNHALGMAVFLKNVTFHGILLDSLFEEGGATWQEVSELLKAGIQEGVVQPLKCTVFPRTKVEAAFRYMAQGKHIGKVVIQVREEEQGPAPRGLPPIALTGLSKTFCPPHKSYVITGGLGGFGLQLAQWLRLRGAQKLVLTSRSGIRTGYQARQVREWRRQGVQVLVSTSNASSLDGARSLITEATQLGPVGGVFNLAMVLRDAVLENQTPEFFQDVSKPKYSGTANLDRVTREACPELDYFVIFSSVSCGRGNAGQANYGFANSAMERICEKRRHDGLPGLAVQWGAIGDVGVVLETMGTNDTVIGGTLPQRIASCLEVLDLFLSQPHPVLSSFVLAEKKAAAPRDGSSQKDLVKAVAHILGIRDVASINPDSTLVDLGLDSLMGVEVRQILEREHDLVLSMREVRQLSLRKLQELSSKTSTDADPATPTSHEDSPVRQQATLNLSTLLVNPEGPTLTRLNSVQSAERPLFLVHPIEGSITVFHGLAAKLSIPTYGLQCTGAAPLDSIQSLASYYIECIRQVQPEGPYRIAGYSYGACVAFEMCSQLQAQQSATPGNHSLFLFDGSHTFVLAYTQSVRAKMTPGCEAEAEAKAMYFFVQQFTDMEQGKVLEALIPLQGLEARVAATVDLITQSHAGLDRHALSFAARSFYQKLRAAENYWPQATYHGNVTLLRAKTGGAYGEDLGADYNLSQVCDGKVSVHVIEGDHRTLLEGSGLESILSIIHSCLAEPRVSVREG

Cc1sc2ncnc(NC3CCN(Cc4ccccc4)C3)c2c1C (racemic) [HS-106, N-(1-benzylpyrrolidin-3-yI)-5,6-dimethylthieno[2,3-d]pyrimidin-4-amine]
elution of FASN from Cibacron blue resin (hit strength / selectivity) (FASN): selectively elutes FASN
EC50 (HIV-1 [1]; Human immunodeficiency virus 1, TZM-bl cells, 48 hours post infection, read-out: EC50, HIV-1 p24 production): 213 nM
antiviral index (TC50/EC50) (HIV-1 [1]; TZM-bl model): 47
HIV-1 p24 production reduced by (HIV-1 [2]; 10 μM): 87%
HIV-1 p24 production reduced by (HIV-1 [2]; 50 μM): 96%
reduction of HIV-1 p24 production (HIV-1 [2]; primary PBMCs, 10 μM): approximately 10 fold
inhibition of tritiated acetate incorporation into lipids ([3]; FIG. 2D, cell line not stated): inhibit the incorporation of tritiated acetate into lipids
rank among the 13 molecules tested, 3H glucose incorporation into lipids ([3]; HepG2 cells): most potent inhibitor
EC50 ([3]; HepG2, read-out: EC50, blockade of acetate incorporation into total lipids): 147 nM
EC50 ([3]; HepG2, read-out: EC50, blockade of glucose incorporation into total lipids): 213 nM
IC50 ([3]; HepG2, read-out: IC50, incorporation of tritiated acetate into lipids): 147 nM
IC50 ([3]; HepG2, read-out: IC50, incorporation of tritiated glucose into lipids): 213 nM
